Measured values published in patent US9345245B2, “Synthetic compounds for vegetative ABA responses” (THE REGENTS OF THE UNIVERSITY OF CALIFORNIA, priority 2012, dated 2016).

Tests used:
Chlamydomonas = assay: Colony growth of Chlamydomonas with and without salinity and osmotic stress; assay type: in vivo; conditions: in vivo
Method: FIG. 17. The effect of ABA and its agonists in Physcomitrella patens and Chlamydomonas. Protonemal growth images (A) and quantitative analysis (B) of the effects of ABA and agonists on Phsycomitrella patens. Protonema were grown on 200 μM of specific test chemical for 10 days. […] Pyrabactin bleached protonema. (C) The expression of ABA-responsive genes of Physcomitrella patens. Protonema were treated with 200 μM chemical solutions for 3 h. (D) Colony growth of Chlamydomonas on the chemical with salinity stress and osmotic stress. There was no effect of ABA and LC66C6 on the Chlamydomonas growth with and without stresses.

ABA-responsive genes [1] = assay: Quantitative RT-PCR of ABA-responsive genes in Arabidopsis; assay type: in vivo
Method: (§1) FIG. 9. LC66C6 induces numerous ABA-responsive genes. […] Ten-day old seedlings were treated with carrier solvent (DMSO) or either 25 μM ABA, pyrabactin or LC66C6 for 8 hours. Total RNA was then prepared labeled and hybridized to ATH1 microarrays. Data plotted are log 2 transformed average expression values for ˜13K probes that were detectable across all experiments. Data shown are averages determined from triplicate biological replicates. (C) and (D) show the expression of a reporter gene in different plant tissues after treatment with vehicle (DMSO), pyrabactin, LC66C6, or (+)-ABA.
Total RNA was isolated using Plant RNA purification reagent (Invitrogen, USA) according to the manufacturer's instructions. cDNA was synthesized from 1 μg of total RNA using the QantiTec reverse transcription kit (Qiagen, USA). Real-time PCR using Maxima® SYBR Green/Fluorescein qPCR Master Mix (Fermentas) was performed with the iQ5 real-time PCR detection system (Bio-Rad, Hercules, Calif.). The relative amounts of target mRNAs were determined using the relative standard curve method and were normalized by relative amount of internal control mRNA. Biological triplicate experiments were performed.

PYR/PYL receptors = assay: Yeast two-hybrid agonist assay (PYR/PYL receptor - PP2C HAB1 interaction); assay type: cell-based, Arabidopsis; conditions: 5 uM of test chemicals
Method: FIG. 1. Novel ABA agonists bind to multiple PYR/PYL. (A) Chemical structure of naturally occurring (+)-ABA, its (-) analog and selected ABA agonists. (B) Yeast two-hybrid agonist assays of PYR/PYL receptor sensitivity to 5 uM of test chemicals. Specific PYR/PYL Receptors and the PP2C HAB1 are expressed as Gal4 BD or AD fusion proteins respectively, as described in the text. A previously described yeast two-hybrid system was used in high throughput screens (HTS) to identify ABA agonists (see, Peterson F C, et al. (2010) Structural basis for selective activation of ABA receptors. Nature Structural & Molecular Biology 17(9):1109-1111). In this system the agonist promoted receptor-PP2C interaction drives expression of a URA3 or HIS3 reporter gene and rescues uracil or histidine auxotrophy of parental strains (Peterson F C, et al. (2010); […], Harlow E, & Boeke J D (1996) Reverse two-hybrid and one-hybrid systems to detect dissociation of protein-protein and DNA-protein interactions. Proceedings of the National Academy of Sciences of the United States of America 93(19):10315-10320). HTS were conducted using 5 different reporter strains that express binding domain (BD) fusions to […]3 or PYL4; these were co-expressed with activation domain (AD) fusions to HAB1 (pACT-HAB1); the constructs used have been described previously (Park et al. 2009). […]

ABA-responsive genes [2] = assay: ATH1 microarray analysis of seedlings; assay type: in vivo, Arabidopsis; conditions: wild-type seedlings; 25 μM
Method: as §1
Total RNA was isolated using RNAeasy Plant Mini Kit (Qiagen, USA) according to the manufacturer's instructions. cDNA synthesis, labeling and hybridization to the Arabidopsis ATH1 chips (Affymetrix, USA) were performed by the IIGB Core Instrumentation Facility of University of California at Riverside using Affymetrix protocols. Biological triplicate samples were hybridized for DMSO controls, ABA, pyrabactin and quinabactin treatments; compound were applied at 25 μM final concentration and RNA prepared from frozen tissue after 6 hours exposure to compounds or controls. Expression signals for probe sets were calculated and normalized by MASS Statistical Algorithm (Affymetrix, USA). Experimental filtering of array data was performed for the presence of signal in all experiments. […]

ABA-responsive genes [3] = conditions: higher concentrations; Park et al., 2009; cited from earlier work

Question: For `O=S(=O)(NCc1ccccn1)c1ccc(Br)c2ccccc12` [pyrabactin], which “bleaching of Chlamydomonas (toxicity)” value (Chlamydomonas) is on record?
Answer: bleached the Chlamydomonas

Question: And the “induction of MAPKKK18, RD29A, and RD29B mRNAs” value (ABA-responsive genes [1]; Col and Ler ecotypes and pyr1, pyl1, ply2, pyl3 and pyl4 single mutants)?
Answer: did not significantly induce expression of any of the genes assayed

Question: And the “expression of ABF3, GBF3, NCED3, and RD29A” value (ABA-responsive genes [1]; Col wild-type plants)?
Answer: did not induce significant expression of any genes analyzed

Question: What about the “expression of RD29B and MAPKKK18 mRNA” value (ABA-responsive genes [1]; wild-type plants) of the same compound?
Answer: did not induce gene expression

Question: And the “receptor selectivity in yeast two-hybrid assay” value (PYR/PYL receptors)?
Answer: much greater receptor selectivity than ABA or the new agonist LC66C6

Question: What about the “genome-wide gene expression pattern compared with ABA” value (ABA-responsive genes [2]) of the same compound?
Answer: did not induce an expression pattern similar to that of ABA

Question: And the “ABA-related gene expression in seedlings” value (ABA-responsive genes [3])?
Answer: induce modest ABA-related gene expression
